In this experiment the test system is colorectal tumor of Apc^min/+ genetically engineered CRC mouse. In kind it is in vivo, Apc^min/+ mice. Particulars: i.v. about 3.7 MBq, PET/CT after 1 h (Figure S4).

On to `OC[C@H]1OC(O)[C@H](F)[C@@H](O)[C@@H]1O` (stereo partly shown) [^18F-FDG, ^18F-Fluorodeoxyglucose, reference compound], for which the “Tumor enrichment in PET/CT (in words)” value is listed as “did not show ideal tumor enrichment”.
